Data as given in patent publication US9145354B2, “Pharmaceutical compounds” (priority 2011, dated 2015).
Read-outs that look alike come from different tables or passages of the source.

Biological target: full length NS3/4a (Hepatitis C virus genotype 1b (isolate BK) (HCV), UniProt P26663)
Assay: NS3 Protease Assay (Example A), FRET-based
Assay type: biochemical
Summary of the method: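 Full-length NS3/4a, made in-house, with an NS4A/B-derived peptide substrate carrying QXL520 quencher and 5-FAMsp fluorophore. Buffer 50 mM Tris pH8, 20 mM DTT, 1% CHAPS, 10% glycerol, 5% DMSO. Fluorescence followed 30 min at room temperature; IC50 from initial rates of replicate curves.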

[1] = HCV NS3 protease assay, full length NS3/4a, read-out: Assay A IC50 (μM) average
[2] = stated as IC50 less than 30 μM or at least 40% inhibition at a concentration of 100 μM, read-out: IC50 against the protease activity of the full length NS3/4a
[3] = read-out: IC50 against the protease activity of the full length NS3/4a

Chain of full length NS3/4a (P26663 1027-1657): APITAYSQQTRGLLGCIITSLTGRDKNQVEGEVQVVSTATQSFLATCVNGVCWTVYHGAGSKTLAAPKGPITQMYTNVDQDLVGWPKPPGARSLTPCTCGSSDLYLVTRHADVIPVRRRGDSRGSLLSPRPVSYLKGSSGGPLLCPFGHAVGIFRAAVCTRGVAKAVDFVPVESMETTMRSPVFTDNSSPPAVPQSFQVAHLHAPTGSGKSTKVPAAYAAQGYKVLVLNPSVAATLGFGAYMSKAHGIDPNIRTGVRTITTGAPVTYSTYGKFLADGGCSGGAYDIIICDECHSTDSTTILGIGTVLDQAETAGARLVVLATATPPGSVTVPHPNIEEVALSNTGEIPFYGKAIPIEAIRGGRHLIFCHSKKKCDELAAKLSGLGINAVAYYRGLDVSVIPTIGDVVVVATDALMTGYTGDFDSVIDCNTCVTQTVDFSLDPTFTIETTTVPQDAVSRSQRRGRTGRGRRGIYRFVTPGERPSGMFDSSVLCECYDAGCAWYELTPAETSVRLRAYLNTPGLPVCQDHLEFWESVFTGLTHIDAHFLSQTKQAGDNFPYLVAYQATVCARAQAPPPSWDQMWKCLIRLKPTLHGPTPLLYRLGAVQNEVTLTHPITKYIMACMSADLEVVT

| Compound | IC50 [1] | IC50 [3] | further results |
| --- | --- | --- | --- |
| CC[C@@H](N[C@H](CC(N)=O)C(C)C)c1ccc(Cl)c(C(=O)c2ccc(N)nc2)c1F [Example 219, (3R)-3-{[(1R)-1-{3-[(6-aminopyridin-3-yl)carbonyI]-4-chloro-2-fluorophenyl}propyl]amino}-4-methylpentanamide] | 7.5 µM |  | IC50 [2]: < 30 µM |
| [2H]C([2H])([2H])C([2H])([2H])[C@@H](N[C@H](C)CC(N)=O)c1ccc(Cl)c(C(=O)c2ccc(N)c(Cl)c2)c1F [Example 220, (3R)-3-{[(1R)-1-{3-[(4-amino-3-chlorophenyl)carbonyl]-4-chloro-2-fluorophenyl}(2,2,3,3,3-deutero)propyl]amino} butanamide] | 0.26 µM |  |  |
| [2H]C([2H])([2H])C([2H])([2H])[C@@H](N[C@H](C)CC(N)=O)c1ccc(Cl)c(C(=O)c2ccc(N)c(C)c2)c1F [Example 221, (3R)-3-{[(1R)-1-{3-[(4-amino-3-methylphenyl)carbonyl]-4-chloro-2-fluorophenyl}(2,2,3,3,3-deutero)propyl]amino} butanamide] | 0.36 µM |  |  |
| CC[C@@H](N)c1ccc(Cl)c(C(=O)c2ccc(C#N)c(OC)c2)c1F [Example 222, 4-({3-[(1R)-1-aminopropyl]-6-chloro-2-fluorophenyl}carbonyl)-2-methoxybenzonitrile] |  |  | inhibition at 0.03 µM: 45%; IC50 [2]: < 30 µM |
| COc1ccc([C@H](N[C@H](C)CC(N)=O)C2CC2)c(F)c1C(=O)c1cccc(F)c1 [Example 223, (3R)-3-{[(R)-cyclopropyl({2-fluoro-3-[(3-fluorophenyl)carbonyl]-4-methoxyphenyl})methyl]amino}butanamide] | 3.1 µM | 1 to 5 µM |  |
| CC[C@H](CC(N)=O)N[C@H](CC)c1ccc(Cl)c(C(=O)c2ccc(N)nc2)c1F [Example 226, (3R)-3-{[(1R)-1-{3-[(6-aminopyridin-3-yl)carbonyl]-4-chloro-2-fluorophenyl}propyl]amino}pentanamide] | 1.1 µM | 1 to 5 µM |  |
| CC[C@@H](N[C@H](C)CC(N)=O)c1ccc(Cl)c(C(=O)c2cccc(O)c2)c1F [Example 228, (3R)-3-{[(1R)-1-{4-chloro-2-fluoro-3-[(3-hydroxyphenyl)carbonyl]phenyl}propyl]amino}butanamide] | 0.73 µM | < 1 µM |  |
| CC[C@@H](N[C@H](C)CC(N)=O)c1ccc(Cl)c(C(=O)c2ccc(O)cc2)c1F [Example 231, (3R)-3-{[(1R)-1-{4-chloro-2-fluoro-3-[(4-hydroxyphenyl)carbonyl]phenyl}propyl]amino}butanamide] | 2.1 µM | 1 to 5 µM |  |
| CC[C@@H](N[C@H](C)CC(N)=O)c1ccc(Cl)c(C(=O)c2ccc(N)nn2)c1F [Example 233, (3R)-3-{[(1R)-1-{3-[(6-aminopyridazin-3-yl)carbonyl]-4-chloro-2-fluorophenyl}propyl]amino}butanamide] |  |  | inhibition at 10 µM (@ 10 uM): 40%; IC50 [2]: < 30 µM |
| CC[C@@H](N[C@H](C)CC(N)=O)c1ccc(Cl)c(C(=O)c2ccc(C#N)c(OC)c2)c1F [Example 236, (3R)-3-{[(1R)-1-{4-chloro-3-[(4-cyano-3-methoxyphenyl)carbonyl]-2-fluorophenyl}propyl]amino}butanamide] |  |  | inhibition at 1 µM (@ 1 uM): 56%; IC50 [2]: < 30 µM |
| CC[C@@H](N[C@@H](C)CC(=O)NCCN)c1ccc(Cl)c(C(=O)c2ccc(N)nc2)c1F [Example 240, (3S)-N-(2-aminoethyl)-3-{[(1 R)-1-{3-[(6-aminopyridin-3-yl)carbonyl]-4-chloro-2-fluorophenyl}propyl]amino}-butanamide] |  |  | inhibition at 0.03 µM: 48%; IC50 [2]: < 30 µM |
| CC[C@@H](N[C@H](C)CC(=O)NCCN)c1ccc(Cl)c(C(=O)c2ccc(N)nc2)c1F [Example 241, (3R)-N-(2-aminoethyl)-3-{[(1R)-1-{3-[(6-aminopyridin-3-yl)carbonyl]-4-chloro-2-fluorophenyl}propyl]amino}-butanamide] | 0.036 µM |  |  |
| CC[C@@H](N[C@H](C)CC(=O)NCCO)c1ccc(Cl)c(C(=O)c2ccc(N)nc2)c1F [Example 243, (3R)-3-{[(1R)-1-{3-[(6-aminopyridin-3-yl)carbonyl]-4-chloro-2-fluorophenyl}propyl]amino}-N-(2-hydroxyethyl)butanamide] | 0.43 µM |  |  |
| CC[C@@H](N[C@H](C)CC(N)=O)c1ccc(Cl)c(C(=O)c2ccc(N)c(Cl)c2)c1F [Example 244, (3R)-3-{[(1R)-1-{3-[(4-amino-3-chlorophenyl)carbonyl]-4-chloro-2-fluorophenyl}propyl]amino} butanamide] | 0.38 µM |  |  |
| C[C@H](CC(N)=O)N[C@@H](c1ccc(Cl)c(C(=O)c2ccc(C#N)cn2)c1F)C1CC1 [Example 245, (3R)-3-{[(R)-{4-chloro-3-[(5-cyanopyridin-2-yl)carbonyl]-2-fluorophenyl}(cyclopropyl)methyl]amino}butanamide] | 3.4 µM | 1 to 5 µM |  |
| CC[C@@H](N[C@H](C)CC(N)=O)c1ccc(Cl)c(C(=O)c2cc(C)c(N)cn2)c1F [Example 246, (3R)-3-{[(1R)-1-{3-[(5-amino-4-methylpyridin-2-yl)carbonyl]-4-chloro-2-fluorophenyl}propyl]amino} butanamide] | 3.9 µM | 1 to 5 µM |  |
| CC[C@@H](N[C@H](C)CC(N)=O)c1ccc(Cl)c(C(=O)c2ccc3c(c2)OCC(=O)N3)c1F [Example 248, (3R)-3-{[(1R)-1-{4-chloro-2-fluoro-3-[(3-oxo-3,4-dihydro-2H-1,4-benzoxazin-7-I)carbonyl]phenyl}propyl]amino}butanamide] | 2 µM | 1 to 5 µM |  |
| CC[C@@H](N[C@H](C)CC(N)=O)c1ccc(OC)c(C(=O)c2ccc(N)nc2)c1F [Example 253, (3R)-3-{[(1R)-1-{3-[(6-aminopyridin-3-yl)carbonyl]-2-fluoro-4-methoxyphenyl}propyl]amino}butanamide] | 1.4 µM | 1 to 5 µM |  |
| C[C@H](CC(N)=O)N[C@@H](c1ccc(Cl)c(C(=O)c2ccc(N)cn2)c1F)C1CC1 [Example 254, (3R)-3-{[(R)-{3-[(5-aminopyridin-2-yl)carbonyl]-4-chloro-2-fluorophenyl}(cyclopropyl)methyl]amino}butanamide] | 1.8 µM | 1 to 5 µM |  |
| C=CC[C@@H](N[C@H](C)CC(N)=O)c1ccc(Cl)c(C(=O)c2ccc(N)nc2)c1F [Example 257, (3R)-3-{[(1R)-1-{3-[(6-aminopyridin-3-yl)carbonyl]-4-chloro-2-fluorophenyl}but-3-en-1-yl]amino}butanamide] | 2 µM | 1 to 5 µM |  |
| CC[C@@H](N[C@H](C)CC(N)=O)c1ccc(Cl)c(C(=O)c2ccc(N)c(C)c2)c1F [Example 260, (3R)-3-{[(1R)-1-{3-[(4-amino-3-methylphenyl)carbonyl]-4-chloro-2-fluorophenyl}propyl]amino}butanamide] |  |  | inhibition at 0.3 µM (@ 0.3 uM): 39% |
| C[C@H](CC(N)=O)N[C@@H](c1ccc(Cl)c(C(=O)c2ccc(CO)cc2)c1F)C1CC1 [Example 264, (3R)-3-{[(R)-(4-chloro-2-fluoro-3-{[4-(hydroxymethyl)phenyl]carbonyl}phenyl)(cyclopropyl)methyl]amino}butanamide] | 0.61 µM |  |  |
| CC[C@@H](N[C@H](C)CC(N)=O)c1ccc(Cl)c(C(=O)c2ccc(N)nc2)c1F [Example 266, (3R)-3-{[(1R)-1-{3-[(6-aminopyridin-3-yl)carbonyl]-4-chloro-2-fluorophenyl}(2,2,3,3,3-deutero)propyl]amino}butanamide] | 1.1 µM | 1 to 5 µM |  |
